This is an account of results in patent US10207989B2, “Substituted alkyl diaryl derivatives, methods of preparation and uses” (TEMPLE UNIVERSITY—OF THE COMMONWEALTH SYSTEM OF HIGHER …, priority 2012, dated 2019).

The subject of series [1] is K562 (chronic myelogenous leukemia; leukemia cell line +ve for Bcr-Abl). Description: Cancer cell assay, tumor cells K562. It is filed as cell-based. Particulars: Homo sapiens, compound in DMSO 0.01 μM to 100 μM, examined 96 hours later, viable cells by trypan blue exclusion. As for the experimental part: (§1) The effect of the compounds of the invention on tumor cells was determined by the assay described by Latham et al., Oncogene 12:827-837 (1996). Tumor cells K562 (chronic myelogenous leukemia; leukemia cell line +ve for Bcr-Abl) or DU145 (prostate cancer) were plated in 12-well dishes at a cell density of 2.5×10^4 cells well. The plated cells were treated 24 hours later with a compound of the invention dissolved in DMSO at multiple concentrations ranging from 0.01 μM to 100 μM. The plates were examined 96 hours later under an inverted microscope, Olympus CK-2 using a 10× objective, and compound activity was noted by physical observation. When necessary, the total number of viable cells was determined by trypsinizing the wells and counting the number of viable cells, as determined by trypan blue exclusion, using a hemacytometer.

In another series the test system is DU145 (prostate cancer). Description: Cancer cell assay, tumor cells DU145. It is filed as cell-based. Particulars: Homo sapiens, examined 96 hours later, viable cells by trypan blue exclusion. The method, then: as §1
Where [2] appears, read: DU-145, compound in DMSO 0.01 μM to 100 μM.

By IC50 is commonly meant the concentration at which inhibition is half-maximal. High values mean lower potency, low ones higher potency. Broadly, the melting point is the temperature of the solid-liquid transition. Take `O=S(=O)(CCc1ccc(F)cc1)Cc1ccc(Cl)cc1` [Example 2, 1-Chloro-4-(((4-fluorophenethyl)sulfonyl)methyl)benzene]: the melting point fell in the range of 142 to 144 °C. Also, in series [1], the IC50 is 1.5 µM. This molecule also gave an IC50 in the series on DU145 (prostate cancer) (setting [2]) of 1.5 µM.

For the molecule `COc1cc(OC)c(CCS(=O)(=O)Cc2ccc(OC)c(N)c2)c(OC)c1` [Example 3, 2-Methoxy-5-(((2,4,6-trimethoxyphenethyl)sulfonyl)methyl)aniline], the melting point lay within 128 to 130 °C. For the same molecule, the IC50 in series [1] was determined as 0.0025 µM. Besides, the concentration for half-maximal inhibition (IC50) in the series with DU145 (prostate cancer) (setting [2]) turned out to be 0.003 µM.

`COc1cc(OC)c(CCS(=O)(=O)Cc2ccc(OC)c(NCC(=O)O)c2)c(OC)c1` [Example 4] displayed a melting point of 146 to 150 °C. The molecule further yielded an IC50 in series [1] of 0.5 µM. The IC50 in the series on DU145 (prostate cancer) (setting [2]) amounted to 0.25 µM.

As to `COc1cc(OC)c(CCS(=O)(=O)Cc2ccc(OC)c(O)c2)c(OC)c1` [Example 5, 2-Methoxy-5-(((2,4,6-trimethoxyphenethyl)sulfonyl)methyl)phenol], the melting point fell in the range of 136 to 138 °C. In series [1], this molecule displayed a half-inhibitory concentration (IC50) of 0.003 µM. Further, the midpoint of inhibition in the series on DU145 (prostate cancer) (setting [2]), the IC50, lay at 0.0075 µM.

`O=C(O)c1ccc(CCS(=O)(=O)Cc2ccc(Cl)cc2)cc1` [Example 6, 4-(2-((4-Chlorobenzyl)sulfonyl)ethyl)benzoic acid]: the melting point was 265 to 267 °C. Also, in series [1], 10 µM corresponded to half-maximal inhibition (IC50). Moreover, the IC50 with DU145 (prostate cancer) (setting [2]) stood at 10 µM.

In the case of `COc1cc(OC)c(CCC(=O)Nc2ccc(OC)c(N)c2)c(OC)c1` [Example 7, N-(3-Amino-4-methoxyphenyl)-3-(2,4,6-trimethoxyphenyl)propanamide], the results for the IC50 (in series [1]; in the series with DU145 (prostate cancer) (setting [2])) were 0.15 µM and 5 µM, respectively.

Consider `COC(=O)CNc1cc(CS(=O)(=O)CCc2c(OC)cc(OC)cc2OC)ccc1OC` [Example 8], for which the IC50 (in series [1]; with DU145 (prostate cancer) (setting [2])) was 0.15 µM each time.

Take `COC(=O)CN(CC(=O)OC)c1cc(CS(=O)(=O)CCc2c(OC)cc(OC)cc2OC)ccc1OC` [Example 9, Dimethyl 2,2′-((2-methoxy-5-(((2,4,6-trimethoxyphenethyl)sulfonyl)methyl)phenyl)azanediyl)diacetate]: the melting point lay in the range of 86 to 88 °C. For the same molecule, the IC50 in series [1] was determined as 2 µM. In the series with DU145 (prostate cancer) (setting [2]), this molecule came in with an IC50 of 2 µM.

With `COc1cc(OC)c(CCS(=O)(=O)Nc2ccc(OC)c(N)c2)c(OC)c1` [Example 19, N-(3-Amino-4-methoxyphenyl)-2-(2,4,6-trimethoxyphenyl)ethanesulfonamide], the IC50 in series [1] is 0.003 µM; with DU145 (prostate cancer) (setting [2]), 0.005 µM.

As for `COc1ccc(CS(=O)(=O)CCc2c(OC)cc(OC)cc2OC)cc1` [Example 20, 1,3,5-Trimethoxy-2-(2-((4-methoxybenzyl)sulfonyl)ethyl)benzene], the IC50 in series [1] worked out at 0.05 µM; in the series on DU145 (prostate cancer) (setting [2]) it was 0.15 µM.

For `COc1cc(OC)c(CCS(=O)(=O)Cc2ccc(OC)c(NCC(=O)O)c2)c(OC)c1` [Example 21, 2 ((2-methoxy-5-(((2,4,6-trimethoxyphenethyl)sulfonyl)methyl)phenyl)amino)acetate], the IC50 came to 0.04 µM in series [1] (K562, 96 h) and 0.15 µM in the series on DU145 (prostate cancer) (DU-145, 96 h, compound in DMSO 0.01 μM to 100 μM).

Consider `COc1ccc(CCNS(=O)(=O)c2ccc(C)cc2)cc1` [Example 22, N-(4-methoxyphenethyl)-4-methylbenzenesulfonamide], for which the IC50 (in series [1]; with DU145 (prostate cancer) (setting [2])) was 60 µM in each case.

As for `COc1ccc(CCNS(=O)(=O)c2ccc(OC)c([N+](=O)[O-])c2)cc1` [Example 23, 4-methoxy-N-(4-methoxyphenethyl)-3-nitrobenzenesulfonamide], the IC50 (in series [1]; in the series on DU145 (prostate cancer) (setting [2])) was 35 µM throughout.

In the case of `COc1cc(OC)c(CCNS(=O)(=O)c2ccc(OC)c([N+](=O)[O-])c2)c(OC)c1` [Example 25, 4-methoxy-3-nitro-N-(2,4,6-trimethoxyphenethyl)benzenesulfonamide], the IC50 (in series [1]; in the series on DU145 (prostate cancer) (setting [2])) was 35 µM throughout.

For `COc1cc(OC)c(CCNS(=O)(=O)c2ccc(OC)c(N)c2)c(OC)c1` [Example 26, 3-amino-4-methoxy-N-(2,4,6-trimethoxyphenethyl)benzenesulfonamide], the IC50 in series [1] worked out at 0.75 µM; in the series with DU145 (prostate cancer) (setting [2]), 5 µM.

Regarding `COc1ccc(CCNS(=O)(=O)c2ccc(OC)cc2)cc1` [Example 27, 4-methoxy-N-(4-methoxyphenethyl)benzenesulfonamide], the IC50 (in series [1]; in the series on DU145 (prostate cancer) (setting [2])) was 75 µM in each case.

Consider `COc1ccc(S(=O)(=O)NCCc2c(OC)cc(OC)cc2OC)cc1` [Example 28, 4-methoxy-N-(2,4,6-trimethoxyphenethyl)benzenesulfonamide], for which the IC50 (in series [1]; with DU145 (prostate cancer) (setting [2])) was greater than 10 µM each time.

`COc1cc(OC)c(CCNS(=O)(=O)c2ccc(C)cc2)c(OC)c1` [Example 29, 4-methyl-N-(2,4,6-trimethoxyphenethyl)benzenesulfonamide]: the IC50 (in series [1]; in the series with DU145 (prostate cancer) (setting [2])) was greater than 10 µM each time.

`COc1ccc(C(=O)NCCc2c(OC)cc(OC)cc2OC)cc1` [Example 30, 4-methoxy-N-(2,4,6-trimethoxyphenethyl)benzamide]: the IC50 came out at 5 µM in series [1] and 15 µM in the series on DU145 (prostate cancer) (setting [2]).

Take `COc1ccc(CCNC(=O)c2ccc(OC)cc2)cc1` [Example 31, 4-methoxy-N-(4-methoxyphenethyl)benzamide]: the results for the IC50 (in series [1]; in the series on DU145 (prostate cancer) (setting [2])) were 100 µM and 75 µM, respectively.

Regarding `COc1ccc(CCNC(=O)c2ccc(OC)c([N+](=O)[O-])c2)cc1` [Example 32, 4-methoxy-N-(4-methoxyphenethyl)-3-nitrobenzamide], the 50% inhibitory concentration (IC50) (in series [1]; with DU145 (prostate cancer) (setting [2])) was 75 µM in each case.

In the case of `COc1ccc(CCNC(=O)c2ccc(OC)c(N)c2)cc1` [Example 33, 3-amino-4-methoxy-N-(4-methoxyphenethyl)benzamide], the IC50 (in series [1]; in the series with DU145 (prostate cancer) (setting [2])) was 75 µM each time.

With `COc1cc(OC)c(CCNC(=O)c2ccc(OC)c([N+](=O)[O-])c2)c(OC)c1` [Example 34, 4-methoxy-3-nitro-N-(2,4,6-trimethoxyphenethyl)benzamide], the IC50 (in series [1]; in the series with DU145 (prostate cancer) (setting [2])) was 75 µM each time.

`COc1cc(OC)c(CCNC(=O)c2ccc(OC)c(N)c2)c(OC)c1` [Example 35, 3-amino-4-methoxy-N-(2,4,6-trimethoxyphenethyl)benzamide]: the IC50 in series [1] stood at 0.5 µM; in the series on DU145 (prostate cancer) (setting [2]), 5 µM.

On to `COc1ccc(CCS(=O)(=O)Nc2c(OC)cc(OC)cc2OC)cc1` [Example 36, 2-(4-methoxyphenyl)-N-(2,4,6-trimethoxyphenyl)ethanesulfonamide], for which the values for the IC50 (in series [1]; with DU145 (prostate cancer) (setting [2])) were 2.5 µM and 15 µM, respectively.

Consider `COc1cc(CSCCc2ccc(OC)c(OC)c2)ccc1O` [Example 37, 4-(((3,4-dimethoxyphenethyl)thio)methyl)-2-methoxyphenol], for which the figures for the IC50 (in series [1]; in the series with DU145 (prostate cancer) (setting [2])) were 5 µM and 15 µM, respectively.

As for `COc1cc(CS(=O)(=O)CCc2ccc(OC)c(OC)c2)ccc1O` [Example 38, 4-(((3,4-dimethoxyphenethyl)sulfonyl)methyl)-2-methoxyphenol], the half-maximal inhibitory concentration (IC50) (in series [1]; with DU145 (prostate cancer) (setting [2])) was greater than 10 µM in each case.
